Here are results for one substance from patent US20230117947A1, “Seed Treatment Methods and Compositions” (Novozymes BIOAG A/S, priority 2011, published 2023).

Common to all, as to format: in vivo
The test system of test [1] is soybean seed (Stine S2118). Briefly: Field trial (Example 1): grain yield from treated soybean seed, Whitewater, Wis. Conditions: for GRAIN YIELD @ 13%: 4.8 fl oz/cwt, 13% seed moisture. On the procedure:
A field trial was conducted to evaluate embodiments of the present invention on grain yield when applied on soybean seed. The field trial site was located near Whitewater, Wis. and characterized by Milford silty clay loam soil.
The plant signal molecules used in the trial were Optimize®, a non-commercial grade of Optimize® (NI-50S-1), pure LCO-V (C18:1, MeFuc)(NI-50GREN-1) and a non-commercial grade of LCO-V (C18:1, MeFuc)(NI-50S-2CF). The soybean seed used in the study was Stine S2118. The plant signal molecules were sprayed onto seeds with/without dilution at a rate of 4.8 fl oz/cwt.
The study was conducted in a randomized complete block design, with a plot size of 10 feet by 50 feet (0.011 acres), with 7.5-inch row spacing. Four replications were conducted. Seed were treated with the plant signal molecules 4.5 or 5 months prior to planting and just prior to planting, and were planted at a depth of 1 inch and at a seedling rate of 225,000 seeds per acre using a John Deere 750 NT grain drill. The pesticides Extreme® and AMPS® were both applied 11 days prior to planting (pre-emergence) at rates of 3.0 pt and 2.5 lb, respectively. Assure II®, Roundup WeatherMax® and AMPS® were all applied 46-days post-planting (post-emergent), at rates of 6.0 oz, 21 oz and 2.5 lb, respectively. Plants were harvested 4 months and 20 days after planting.
The Control seed was treated with an amount (wt) of water, corresponding to the amount (wt) of the experimental signal molecule composition (signal molecule+carrier). The Control seed was stored under the same conditions as the experimental seed prior to planting and planted at the same time as the experimental seed in the same soil.

Test [2] concerns soybean seed (Stine 52118). Briefly: Field trial (Example 2): grain yield from treated soybean seed, Whitewater, Wis. Conditions: for GRAIN YIELD @ 13%: 4.8 fl oz/cwt, 13% seed moisture. The protocol:
A soybean trial was conducted to evaluate embodiments of the present invention on grain yield when applied on soybean seed. The field trial site was located near Whitewater, Wis. and characterized by Milford silty clay loam soil. […] The plant signal molecules used in the trial were same as in Example 1. The soybean seed used in the study was Stine 52118. The plant signal molecules were sprayed onto seeds with/without dilution at a rate of 4.8 fl oz/cwt. The study was conducted in a randomized complete block design, with a plot size of 10 feet by 50 feet (0.011 acres), with 7.5-inch row spacing. Four replications were conducted. Seed were treated with the plant signal molecules 4.5 or 5 months prior to planting and just prior to planting, and were planted at a depth of 1 inch and at a seedling rate of 225,000 seeds per acre using a John Deere 750 NT grain drill. The pesticides Extreme® and AMPS® were both applied 10 days prior to planting (pre-emergence) at rates of 3.0 pt and 2.5 lb, respectively. Assure II®, Roundup WeatherMax® and AMPS® were all applied 45-days post-planting (post-emergent), at rates of 6.0 oz, 21 oz and 2.5 lb, respectively. Plants were harvested 4 months and 21 days after planting. The Control seed was treated with an amount (wt) of water, corresponding to the amount (wt) of the experimental signal molecule composition (signal molecule+carrier). The Control seed was stored under the same conditions as the experimental seed prior to planting and planted at the same time as the experimental seed in the same soil.

In test [3] the test system is Soybean seeds. Briefly: Greenhouse test (Example 3): root length and root volume of seedlings from stored treated seed (Winrhizo scanner). Conditions: for % increase in root length / % increase in root vol.: versus Control; for Root Vol. / Root length: 10^−7M, stored at 15° C., harvested after 10 days. The protocol:
Soybean seeds treated with 10^−7M pure LCO-V (C18:1, MeFuc) and stored at 15° C. Treated seeds and non-treated seeds (control) were planted 1 and 12 months after treatment in greenhouse pots containing sand:perlite (1:1 mixture). Seedlings were grown for 10 days after seed plantings then seedlings were harvested, their roots cleaned and measured on the Winrhizo® scanner. The Control seed was treated with an amount (wt) of water, corresponding to the amount (wt) of the experimental signal molecule composition (signal molecule+carrier). The Control seed was stored under the same conditions as the experimental seed prior to planting and planted at the same time as the experimental seed in the same soil.

Setting [4] is: 5 months pre-planting (Group 5) versus at planting (Group 4).
[5] abbreviates: seed treated 5 months prior to planting.
Setting [6] is: planted 1 month after treatment.

Marks after values point to notes of the source that are not given here.

Regarding LCO-V (C18:1, MeFuc) [NI-50GREN-1], the “increase in soybean yield” value in test [1] (setting [4]) stood at 8.3 bushels/acre. Also, the “GRAIN YIELD @ 13%” value came out at 70.5 bushels/acre in test [1] (setting [5]), 62.2 bushels/acre in test [1] (seed treated at planting), 64.0 bushels/acre in test [2] (setting [5]) and 65.8 bushels/acre in test [2] (seed treated at planting). Further, in test [2] (setting [4]), the “decrease in soybean yield” value was 1.8 bushels/acre. In addition, the “% increase in root length” value in test [3] (1 month after treatment) was 5.46%; in test [3] (1 yr after treatment), 37.92%. Also, the “% increase in root vol.” value in test [3] (1 month after treatment) is given as 2.86%; in test [3] (1 yr after treatment), 34%. In addition, the “Root Vol.” value in test [3] (setting [6]) is 0.468 cm^3; in test [3] (planted 1 yr after treatment), 0.540* cm^3. For the same substance, the figures for the Root length in test [3] (setting [6]) and in test [3] (planted 1 yr after treatment) were 135* cm and 159.3* cm, respectively.
